US9657046B2, “Methods for the treatment and prevention of inflammatory diseases” (Children's Medical Center Corporation, priority 2010, dated 2017)

Experiments:
[1] = test system: OVA-sensitized BALB/c mice; test: Adoptive transfer of NKT cells from glycolipid-treated mice into OVA-sensitized BALB/c recipients (AHR, BAL); format: in vivo, mouse; settings: OVA-sensitized WT recipients
[2] = test system: invariant Vα14 NKT cell hybridomas; test: Invariant Vα14 NKT cell hybridomas with glycolipid-loaded immobilized CD1d, IL-2; format: cell-based, mouse; settings: immobilized recombinant CD1d loaded with glycolipid; three hybridomas (RT2, RT23, RT24)
Procedure: (§1) In FIG. 7A, NKT cell lines were cocultured with BM-derived DCs (BMDCs) and α-GalCer (100 ng/ml), PI57 (10 μg/ml), or vehicle for 48 hours, with or without pre-incubation with anti-CD1d (10 μg/ml). IFN-γ was measured by ELISA. In FIG. 7B, murine NKT cell lines were cocultured as in 7A with BMDCs from WT, Cd1d^−/−, Myd88^−/−, or Trif^−/− mice. Cells were treated with α-GalCer (100 ng/ml), PI57 (2.5, 5, or 10 μg/ml), PBS30 (1, 2.5, or 5 μg/ml), or vehicle for 48 hours. IFN-γ and IL-4 were measured by ELISA. […] In FIG. 7D, mouse NKT cell lines were stained with PE-labeled CD1d tetramers of PI57 or α-GalCer at 4° C. for 45 minutes or 37° C. for 25 minutes, and with anti-TCRβ-APC antibody. Top: Lymphocytes were gated in the FSC/SSC window. Bottom: Percentage of CD1d tetramer+ cells. […] In FIG. 7G, CD1d Fc-coated Maxisorp plates were loaded with lipid and cultured with 5×10^4 NKT cells. IFN-γ was analyzed by ELISA after 24 hours. Data represent 3 or 5 independent experiments.
NKT cell hybridomas were established from C57BL/6 thymic NKT cells by fusion with thymoma BW5147 as previously described (61).
Culture wells were coated with recombinant CD1/β2m dimer proteins (Becton Dickinson) according to the manufacture's protocols. […] Cytokines in the culture supernatants were determined by ELISA.

mouse NKT cell lines = test: Staining of mouse NKT cell line with PI57-loaded CD1d tetramers; format: binding
Procedure: as §1
To generate PI57 loaded mCD1d monomers, a 10-fold molar excess of PI57 in DMSO at 2 mg/ml was incubated with biotinylated-mCD1d (from the NIH Tetramer facility) in 2 mM CHAPS and 20 mM Tris pH7.0 overnight at room temperature. […]
Cells were preincubated with anti-Fey blocking mAb (2.4G2) and washed before staining. […] Cells were analyzed on a BDCanto flow cytometer (BD Biosciences) using FlowJo 8.3.3 software (Tree Star, Inc.).

human NKT cell lines = test: Human NKT cell lines, IFN-γ and IL-4 production; format: cell-based; settings: PI57 10 μg/ml, 48 hours in vitro
Procedure: as §1
Human NKT cells were isolated from peripheral blood of normal volunteers, using a PE-conjugated anti-human NKT cell antibody (clone 6B11, which recognizes the CDR3 loop of the conserved Vα24 TCR found on iNKT cells) (BD Pharmingen) and anti-PE MACS beads (Miltenyi Biotec). Cells retained on the MACS column were then eluted. […]
Mouse or human IL-4 and IFN-γ levels were measured by ELISA, as previously described (20). […]

BM2a.3 cells = test: Human NKT cell clone on CD1d Fc-coated plates loaded with lipid, IFN-γ ELISA; format: cell-based; settings: 5×10^4 NKT cells, 24 hours
Procedure: In FIG. 7A, NKT cell lines were cocultured with BM-derived DCs (BMDCs) and α-GalCer (100 ng/ml), PI57 (10 μg/ml), or vehicle for 48 hours, with or without pre-incubation with anti-CD1d (10 μg/ml). IFN-γ was measured by ELISA. In FIG. 7B, murine NKT cell lines were cocultured as in 7A with BMDCs from WT, Cd1d^−/−, Myd88^−/−, or Trif^−/− mice. Cells were treated with α-GalCer (100 ng/ml), PI57 (2.5, 5, or 10 μg/ml), PBS30 (1, 2.5, or 5 μg/ml), or vehicle for 48 hours. IFN-γ and IL-4 were measured by ELISA. […] In FIG. 7D, mouse NKT cell lines were stained with PE-labeled CD1d tetramers of PI57 or α-GalCer at 4° C. for 45 minutes or 37° C. for 25 minutes, and with anti-TCRβ-APC antibody. Top: Lymphocytes were gated in the FSC/SSC window. Bottom: Percentage of CD1d tetramer+ cells. […] IFN-γ was analyzed by ELISA after 24 hours. […]
Maxisorp plates (Nunc) were coated with PBS diluted recombinant human CD1d/β2 microglobulin Fc fusion proteins (0.5 μg/well; kindly provided by Dr. Jenny Gumperz (64) and anti-LFA-1 antibodies (0.05 μg/well, AbD Serotec) overnight at 4° C. After washing with PBS, immobilized CD1d was loaded with sonicated lipid antigens diluted in 25% DMSO/dH2O by overnight incubation at 37° C. After washing with PBS and culture media, NKT cells were added (5×10^4 cells/well) and culture supernatants were analyzed for IFN-γ by ELISA after overnight culture at 37° C.

CCCCCCCCCCCCCC(=O)OC[C@H]1O[C@H](O[C@H]2CC[C@@]3(C)C(=CC[C@H]4[C@@H]5CC[C@H]([C@H](C)CCCC(C)C)[C@@]5(C)CC[C@@H]43)C2)[C@H](O)[C@@H](O)[C@@H]1O [PI57, Cholesteryl 6-O-tetradecanoyl-α-D-glucopyranoside]
airway inflammation (BAL cells, lung sections) in recipients of NKT cells from glycolipid-treated donors ([1]; donors treated i.p. at 2 wk (α-C-GalCer 5 μg, PI57 50 μg)): suppressed AHR and airway inflammation | AHR in recipients of NKT cells from glycolipid-treated donors ([1]; donors treated i.p. at 2 wk (α-C-GalCer 5 μg, PI57 50 μg, or α-GalCer), NKT cells harvested 6 wks later): suppressed AHR | IL-2 production by Vα14 NKT cell hybridomas [2]: produced IL-2 | fraction of PI57-CD1d tetramer+ cells that were CD4− (DN) (mouse NKT cell lines): 92% | NKT cells in an NKT cell line stained by glycolipid-loaded CD1d tetramers (mouse NKT cell lines; 4° C. for 45 minutes or 37° C. for 25 minutes): 10-23% | activation of human NKT cell lines (IFN-γ and IL-4 production) (human NKT cell lines): activated | IFN-γ induced by plate bound CD1d loaded with glycolipid (BM2a.3 cells): induced IFN-γ in BM2a.3 cells
